Reference: the METLIN SMRT retention time set (Domingo-Almenara et al. 2019)

Assay: gradient 5% acetonitrile 3 min, to 50% in 2 min, to 85% in 15 min, held 3 min, 100 µL/min
Conditions: column: Zorbax Extend-C18 2.1 x 50 mm; eluents: water / acetonitrile, 0.1% formic acid
Summary of the method: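 Retention times of pure standards were taken from adduct peaks that were selected by computer and manually inspected. Over 3 months, mixtures of ~100 molecules were run by HPLC–quadrupole time-of-flight mass spectrometry in positive and negative ionization mode. The Zorbax Extend-C18 column (2.1 × 50 mm, 1.8 μm) ran at 100 μL/min in water and acetonitrile, each containing 0.1% formic acid, with 40 μL dead volume and 900 μL dwell volume.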

RP-LC retention time	Compound
786 s	CCOCCCNC(=O)C1CCN(C2=NS(=O)(=O)C(c3ccc(C)c(C)c3)=C2C)CC1
958 s	CCOC(=O)C1CCN(C(=O)C2COC3(CCCCC3)N2C(=O)c2cccc(Cl)c2)CC1 (stereo not given)
1080 s	Cc1ccc(Nc2c(-c3cc(Br)ccc3F)nc3ccc(Cl)cn23)cc1
1110 s	Cc1ccc(C)c(-c2coc(-c3ccc(NC(=O)NCc4ccco4)cc3)n2)c1
775 s	Cc1nc2ccc(Cl)cn2c(=O)c1NC(=O)Cc1ccc(-c2ccccc2)cc1
806 s	Cc1cnn(Cc2nc(-c3ccc(NC(=O)c4ccco4)cc3)oc2C)c1
1030 s	Cc1nc2cc(-c3noc(-c4ccc(F)cc4)n3)ccc2n(C)c1=O
1060 s	CC1CCCN(S(=O)(=O)c2cc(C(=O)N3CCCc4ccccc43)n(C)c2)C1 (stereo not given)
561 s	COc1ccc(C(=O)c2cnc3ccc(OC)cc3c2N2CCN(C)CC2)cc1
1120 s	CCN(CC)c1nc2cc(C(=O)OC)ccc2c(=O)n1-c1cccc(F)c1
883 s	Cc1ccc(C)c(-c2cc3c4nn(CC(=O)NCc5ccco5)c(=O)n4ccn3n2)c1
610 s	CCn1nc(C)c(CCNC(=O)c2cc3c(=O)n(Cc4ccco4)ccc3nc2C)c1C
806 s	CS(=O)(=O)N1CCCc2ccc(NS(=O)(=O)c3ccccc3Cl)cc21
550 s	O=C(Cn1cnc2ccccc21)NCCNc1cc(-n2cccn2)ncn1
758 s	Cc1cccc(NC(=O)CSc2nc(N3CCCCC3)nc3ccccc23)c1
743 s	Cc1ccn2cc(-c3ccc(NS(=O)(=O)c4ccc(Cl)c(Cl)c4)cc3)nc2n1
571 s	CCN(CC)CCNC(=O)Cn1c(-c2ccccn2)nc2ccccc21
654 s	Cc1[nH]c(=O)[nH]c(=O)c1CC(=O)N1CCN(c2cccc(Cl)c2Cl)CC1
988 s	O=C(CN1C(=O)CCCc2cc(S(=O)(=O)N3CCCCCC3)ccc21)Nc1cccc(F)c1
898 s	Cn1cc(C2=CCN(S(=O)(=O)Cc3ccccc3)CC2)c2cccnc21
882 s	CCC(NC(=O)c1cnc(-c2ccccc2)nc1-c1ccncc1)c1ccc(OC)cc1 (stereo not given)
615 s	CCn1c(=O)c(SCC(=O)NCCCN2CCCC(C)C2)nc2ccccc21 (stereo not given)

RP-LC retention time	Compound
671 s	CC(C)NC(=O)c1nc(-c2ccnc(N3CCOCC3)c2)no1
1040 s	CC1CCN(S(=O)(=O)c2ccc(-c3nnc(C(=O)N4CCCCC4)o3)cc2)CC1
836 s	CC(=O)C1=C(O)C(=O)N(C(C)c2ccccc2)C1c1ccccc1 (stereo not given)
647 s	CCOC(=O)c1nc(NCCCN2CCN(c3ccc(F)cc3)CC2)c2ccccc2n1
919 s	COc1ccccc1-n1ccnc(NC(=O)Nc2cccc(F)c2)c1=O
585 s	O=C(CCc1nnc2ccc(N3CCCC3)nn12)N1CCN(c2ccccn2)CC1
619 s	CC(=O)N1c2ccc(S(=O)(=O)N3CCCC3)cc2CC1C(=O)NCCCN1CCCCCC1 (stereo not given)
792 s	CCn1cc(C)c(C(=O)O)c1CC(=O)N(C)c1cccc(Cl)c1
846 s	CS(=O)(=O)N1CCC(OC2CCN(C(=O)Nc3cccc(C(F)(F)F)c3)CC2)CC1
797 s	Cc1cccc(NS(=O)(=O)c2cc3c(=O)n(C)ncn3c2)c1
871 s	CCc1cc2nn(CC#N)c(=O)n2c(C(C)C)n1
1000 s	O=C(Nc1ccc(-c2nc3ccccc3o2)cc1)c1ccc(S(=O)(=O)N2CCCC2)cc1
575 s	c1cc(-c2sc(-c3ccncc3)c(-c3ccncc3)c2-c2ccncc2)ccn1
740 s	COc1ccc(CNc2c(C(=O)OC(C)C)cnc3nc(C)ccc23)cc1
918 s	COc1ccc(NS(=O)(=O)c2ccc3c(c2)C(=O)N(C)c2ncccc2O3)cc1Cl
1110 s	Cc1ccccc1-c1nc(-c2ccc3c(c2)oc(=O)n3C)no1
987 s	O=C(C1Sc2ccccc2N(CC(=O)N2CCc3ccccc32)C1=O)N1CCCCCC1 (stereo not given)
597 s	COc1cc(C(C)=O)ccc1OCC(O)CN1CCN(c2cccc(C)c2C)CC1 (stereo not given)
1060 s	CC(C)NC(=O)Cn1cnc2nc(N3CCC(C(=O)NC4CC4)CC3)sc2c1=O
1060 s	Cc1ccc(C(=O)Nc2nccnc2C(=O)NC(C)c2ccc(F)cc2)cc1 (stereo not given)
1080 s	COc1ccc(-c2nc(-c3ccc4oc(C)nc4c3)no2)cc1F
1030 s	CCSc1nnc(-c2nn(C)c3c2CN(S(=O)(=O)c2ccc(CC)cc2)CC3)n1CC

RP-LC retention time	Compound
1050 s	O=S(=O)(c1ccc(-c2noc(-c3ccc(F)cc3)n2)cc1)N1CCOCC1
1030 s	O=C(NCC1COc2ccccc2O1)C(=O)Nc1cccc(Br)c1 (stereo not given)
953 s	Cc1cc(C)c(C(=O)N2CCCC(C(=O)N3CCN(c4cccc(Cl)c4)CC3)C2)[nH]1 (stereo not given)
792 s	Cc1cc(-c2nnc(C3CC3)o2)c(C)n1CC(=O)Nc1ccc(F)cc1
978 s	Fc1ccc(C(c2nnc(-c3ccccc3)o2)N2CCN(c3ccccn3)CC2)c(Cl)c1 (stereo not given)
782 s	CCOC(=O)CC(NC(=O)N1CCC2(CC1)NC(=O)c1ccccc1O2)c1ccccc1 (stereo not given)
721 s	CC1CCN(S(=O)(=O)c2nn(Cc3ccccn3)cc2C(=O)O)CC1
785 s	O=C(NCC1CCCO1)c1nc2ccccn2c1-c1ccc(Cl)cc1 (stereo not given)
663 s	COc1ccc(-c2cc3c(=O)n(CC(=O)N4CCN(c5ccccn5)CC4)nc(C)n3n2)cc1
790 s	Cc1cc(OCC(=O)N2CCCCC2)nc(-c2ccc(Cl)cc2)n1
772 s	COc1ccc(-c2nnc(-c3cc(S(=O)(=O)NCC(=O)O)ccc3Cl)o2)cc1
832 s	Cc1ccc(NC(=O)N2C[C@@H]3C[C@H](NS(=O)(=O)c4ccccc4)[C@H]2C3)c(C)c1
1300 s	CSc1ccc(Cl)c(-c2nc(-c3cccc(-c4ccnn4C)c3)no2)c1
1060 s	O=C(Cn1cccc1-c1nc(-c2ccc3c(c2)OCO3)no1)Nc1cc(F)cc(F)c1
605 s	CSc1ccc(-c2nc3cnccn3c2Nc2cccc(C(=O)NCCN(C)C)c2)cc1
952 s	COc1ccc(NC(=O)Cn2c(C)cc(-c3nnc(-c4ccc(F)cc4)o3)c2C)cc1
597 s	Cc1nc(Nc2ccccn2)sc1C(=O)N1CCN(C2CCCCC2)CC1
824 s	Cc1cc(N2CCC(NC(=O)Nc3ccccc3)C2=O)ccc1F (stereo not given)
860 s	Cc1ccc(F)cc1NC(=O)Cn1nc(N(C)C)c2ccccc2c1=O
774 s	Cc1cccc(-c2ncccc2CNS(=O)(=O)Cc2cccc(F)c2)c1
1320 s	CCCN(C(=O)CC)c1nc(-c2cccc(Cl)c2)cs1
